This is an account of results in patent US9243024B2, “Aptamer-mediated drug release” (priority 2009, dated 2016).

In one series the target is cocaine aptamer MNS-1. Description: Fluorescence screening of FDA approved drugs against fluorescein-labeled aptamer MNS-1 with DABCYL quencher oligonucleotide 1-Q. In kind it is binding. The settings on record: 20 mM Tris-HCl pH 7.4, 50 nM MNS-1, 150 nM 1-Q, 30 min incubation. Here is the method:
Oligonucleotides MNS-1 and 1-Q were custom-made and HPLC purified by Integrated DNA Technologies, Inc (Coralville, Iowa, USA) and were used as received. The base sequence for MNS-1 is: 5′-fluorescein-ATCTCGGGACGACAGGATTTTCCTCAATGAAGTGGGTCGTCCC (SEQ ID NO:4), and 1-Q is: 5′-GTC GTC CCG AGA T-dabcyl (SEQ ID NO:5). All compounds (except cocaine) were purchased from Sigma-Aldrich Co. (St. Louis, Mo., USA). All measurements were performed in 20 mM Tris-HCl pH 7.4, 140 mM NaCl, 5 mM KCl, 2 mM MgCl2. Mixture of MNS-1 and 1-Q was incubated for 5 min at room temperature, then a series of standard dilutions of all compounds were added to the mixture solutions of MNS-1 and 1-Q to final concentrations of 50 nM and 150 nM respectively. Measurements were performed after an incubation time of 30 min. The measurements were performed on a Perkin-Elmer Victor II microplate reader (Wallac, Finland) with a 485-nm excitation filter and a 535-nm emission filter. […]

Another series has as its system Spiegelmer (L-MNS). Description: Spiegelmer (L-MNS) binding of quinine. The settings on record: same conditions as MNS-1/1-Q. From the text:
) binding of quinine. […] from ChemGenes (Wilmington, Mass.). Note that the sequence and label are same as mns-1, 1-Q, measurement conditions and concentrations were also the same (see FIG. 4, and Materials and Methods section in Example section 6). […] Oligonucleotides MNS-1 and 1-Q were custom-made and HPLC purified by Integrated DNA Technologies, Inc (Coralville, Iowa, USA) and were used as received. The base sequence for MNS-1 is: 5'-fluorescein-[NT] ID NO:4), and 1-Q is: 5'-[NT]-dabcyl (SEQ ID NO:5). […] (St. Louis, Mo., USA). All measurements were performed in 20 mM Tris-HCl pH 7.4, 140 mM NaCl, 5 mM KCl, 2 mM MgCl2. […] Measurements were performed after an incubation time of 30 min. The measurements were performed on a Perkin-Elmer Victor II microplate reader (Wallac, Finland) with a 485-nm excitation filter and a 535-nm emission filter.

Series [1] relates to matrix-displayed aptamer (SEQ ID NO:11) on Biacore SA chip. Description: Biacore SPR: loading and release from aptamer-coated SA chip. In kind it is binding. The procedure:
For SPR experiments, Biacore X system and commercially available Biacore SA sensor chips from Biacore AB (Uppsala, Sweden) were used.
A 1 μM solution of aptamer aptamer 5′-/5BioTEG//iSp18//iSp18/ATCTCGGTCTCGGGACGACAGGATTTTCCTCAATGAAGTGGGTCGTCCCGAGA (SEQ ID NO:11) in 10 mM HEPES at pH 7.4, 150 mM NaCl, and 3 mM EDTA (in HBS-EP) was applied to one of the SA sensor chip's two channels for 20 min at 4 μL min^−1, followed by a 120 sec wash with 4 M urea/15 mM EDTA to remove any nonspecifically adsorbed material. The aptamer used for these SPR experiments was shorter by two bases relative to the aptamer used in the microsphere experiments (see SEQ ID NO:7). According to the Biacore SA chip literature, the matrix was a highly irregular 3D dextran hydrogel recognition matrix with a height of approximately 100-200 nm and an uneven distribution of streptavidin. The matrix was coated with biotinylated aptamer containing two 18-atom hexaethylene glycol spacers between the biotin and the oligonucleotide. On the basis of changes in SPR response, the aptamer was coated at saturation densities of 0.12-to-0.15 pmol mm^−2, an estimated average inter-aptamer distance of 10-to-11 nm (based on a 100 nm height for the dextran layer. 1.2-to-1.6 molecules of insulin-conjugate bound per aptamer on initial loading, with oligonucleotide binding (i.e. no insulin attached) at 1.2 per aptamer. Where possible, the channel with no aptamer or insulin-conjugate/oligonucleotide deposited acted as a blank for correction of system influence. When the additional channel was not able to be used as a blank, data for the first 10 minutes of any buffer change was omitted due to artifacts occurring in this time period caused by washes with the new buffer.
Matrix-Aptamer Hybridization with (5). (5) 1 μM in NaCl (140 mM), KCl (5 mM), and MgCl2 (1.2 mM), buffered to pH 7.4 with Tris (20 mM), was dispensed on the aptamer displaying channel at 1 μL min^−1 until saturation (80 min), with the other channel used as a system influence control when possible. Monitoring of conjugate (5) release was taken 15 minutes after the end of the conjugate (5) application time to allow for weak non-specifically bound conjugate to be washed from the surface. Conjugate dissociation in real time was measured through the decrease in mass, again using the formula 1000 R.U.=[…]. In some experiments, instrumental instabilities were observed as occasional spikes in sensorgrams during long-time monitoring.
Release of the insulin-conjugate (i→ii in FIG. 1A) was studied in two different systems: 1) release from a dextran matrix (SA-Chip, Biacore), under continuous flow, with surface plasmon resonance (SPR) monitoring, and 2) release from the surface of non-porous beads followed by fluorescence monitoring. […]
A general note: In SPR one partner is held on a chip, and binding of the other changes the refractive index at the surface.

Series [2] relates to aptamer (SEQ ID NO:7) functionalized microspheres loaded with conjugate (5). Description: Triggered release of insulin conjugate (5) from aptamer coated microspheres, fluorescence monitoring. The procedure:
(for a biotin binding site:aptamer ratio of 5:1) Streptavidin functionalized magnetic microspheres (Bangs Laboratories), 2 mL, were washed with HEPES 10 mM/NaCl 150 mM/pH 7.4 buffer 3×2 mL, using a magnet to separate out the microspheres from the washings. The microspheres were suspended in 1 mL of the same buffer. The aptamer 5′-/5BioTEG//iSp18//iSp18/ATCTCGGTCTCGGGACGACAGGATTTTCCTCAATGAAGTGGGTCGTCCCGAGACC-3′ (SEQ ID NO:7) (IDT, Coralville, Iowa, USA), 2 nmoles, was dissolved in 10 mL of the buffer and added slowly drop-wise to the microsphere suspension under continuous shaking. The mixture was incubated for one hour and then washed 3×, once with a 1 mL volume then twice with 200 μL volumes after transfer to a 1.5 mL microcentrifuge tube. The washed microspheres were resuspended in 1 mL of buffer and stored at 4° C. until use. For a biotin binding site:aptamer ratio of 1:1, i.e. saturated, 800 μL of microspheres were prepared as above, with the exception that they were resuspended in 400 uL of buffer with 8 nmoles of aptamer then added.
Aptamer functionalized microspheres (200 uL containing 0.4 nmoles of aptamer were washed 1×200 μL of binding buffer and then resuspended in 100 μl of the same buffer. The insulin-PEO12-oligonucleotide conjugate in 0.5 nmoles, in 37 μL of water, was added to the suspension and incubated, with constant mixing by inversion, overnight at room temperature, protected from light.
All release experiments were carried out in water containing NaCl (140 mM), KCl (5 mM), and MgCl2 (1.2 mM), buffered to pH 7.4 with Tris (20 mM). Streptavidin coated microspheres were mixed with biotinylated aptamer to obtain aptamer coated microspheres, see above for detailed preparation. […] On addition of six micromolar quinine at three and one half hours an additional pulse with analogous characteristics of the first pulse was observed. A third analogous pulse can be triggered using eighteen micromolar quinine. […]

Series [3] relates to rat hepatoma cell insulin signaling pathways (McA-RH7777). Description: Tissue culture and insulin signaling assay. The settings on record: 100 nM for 10 min, McA-RH7777 cells, in triplicate. The series is classed as cell-based. Here is the method:
McA-RH7777, rat hepatoma cells were grown in DMEM media with 20% fetal bovine serum. Cells were incubated in serum-free medium for 5 hours and treated with insulin and insulin-oligonucleotide conjugate at the concentration of 100 nM for 10 min. Cell lysates were prepared in SDS lysis buffer (2% SDS, 62.5 mM Tris HCL (pH 6.8), 10% glycerol, 50 mM DTT, 0.01% Bromophenol Blue). All antibodies were purchased from Cell Signaling Technology (Danvers, Mass.).

Consider `C=C[C@H]1C[N@@]2CC[C@H]1C[C@H]2[C@H](O)c1ccnc2ccc(OC)cc12` [quinine], for which the Kd on cocaine aptamer MNS-1 was ~600 nM. For the same compound, in the series with Spiegelmer (L-MNS), the “binding to the spiegelmer of the aptamer” value is on record as “bound to the spiegelmer of the aptamer”. Also, the “insulin-conjugate boluses by escalating quinine concentrations” value in series [1] (0, 2 and 8 μM quinine, or 1.5, 6 and 18 μM after pre-washing the chip, SPR) was “desired profile with three postprandial boluses”. The “triggered release of (5) from microspheres” value in series [2] (two micromolar quinine, pH 7.4) is recorded as “a pulse of (5) was released”.
For `C[C@]12CCC(=O)C=C1CC[C@@H]1[C@@H]2[C@@H](O)C[C@@]2(C)[C@H]1CC[C@]2(O)C(=O)COC(=O)CCC(=O)O` [hydrocortisone-21-hemisuccinate (HHS), hydrocortisone-21-hemisuccinate], the “triggering of insulin conjugate release from microspheres” value in series [2] (250 μM, soaking for a total of 60 minutes) is listed as “sluggishly”; in series [2] (higher concentrations than 250 μM), “significant release of the conjugate”.
As to “Fluorescein-5′-GTC GTC CCG AGA CCG AGA T-3′-L1-Insulin [insulin conjugate]”, the “activity of insulin conjugate on insulin signaling” value in series [3] is “full activity”. Also, the “line of best fit slope of initial rate data for dissociation” value in series [1] (SA chip (Biacore), fitted from 15 to 25 minutes) was −0.1399 fmol mm^−2 min^−1. For the same compound, the “observed initial dissociation rate” value in series [1] (SA chip (Biacore), no quinine) came out at 0.14 fmol mm^−2 min^−1.
Take “5′-TCTCGGGACGACCCACTTCATTG-3′ (TCTCGGGACGACCCACTTCATTG; listed as DNA, chemistry not given here) [oligonucleotide inhibitor]”: the “blocking of insulin-conjugate release in the presence of quinine” value in series [1] (1 μM inhibitor, SPR) was “block the release of the insulin-conjugate”.

Broadly, the Kd is the equilibrium constant for the complex coming apart. Low readings indicate tighter binding, high ones weaker binding.
